Assay results as given in ChEMBL document CHEMBL3045401, “(Naphthalen-1-yloxy)-acetic acid benzylidene/(1-phenyl-ethylidene)-hydrazide derivatives: synthesis, antimicrobial evaluation, and QSAR studies” (Med Chem Res, 2012).
≈ marks a conversion by molar mass, not a printed value.

Experiments:
[1] = Octanol-water partition coefficient, log P of the compound; type: physicochemical
Aspergillus niger = experiment: Antimicrobial activity against Aspergillus niger after 7 days by serial dilution method; type: functional
Candida albicans = experiment: Antimicrobial activity against Candida albicans after 2 days by serial dilution method; type: functional
Escherichia coli = experiment: Antimicrobial activity against Escherichia coli after 24 hr by serial dilution method; type: functional
Staphylococcus aureus = experiment: Antimicrobial activity against Staphylococcus aureus after 24 hr by serial dilution method; type: functional
Bacillus subtilis = experiment: Antimicrobial activity against Bacillus subtilis after 24 hr by serial dilution method; type: functional
[2] = Cytotoxicity against HEL assessed as minimum concentration required to cause morphological changes; type: cell-based; settings: human, HEL cells
Human betaherpesvirus 5 [3] = experiment: Antiviral activity against Human herpesvirus 5 Davis infected human HEL cells assessed as reduction in the virus plaque formation; type: functional, organism-based; settings: Human betaherpesvirus 5, Davis
Human betaherpesvirus 5 [4] = experiment: Antiviral activity against Human herpesvirus 5 strain AD169 infected human HEL cells assessed as reduction in the virus plaque formation; type: functional, organism-based; settings: Human betaherpesvirus 5, AD169, HEL
[5] = Cytotoxicity against HEL; type: cell-based; settings: human, HEL cells
Human alphaherpesvirus 3 [6] = experiment: Antiviral activity against thymidine kinase-deficient Human herpesvirus 3 infected in HEL cells assessed as inhibition of viral plaque formation; type: functional, organism-based; settings: Human alphaherpesvirus 3, HEL
Human alphaherpesvirus 3 [7] = experiment: Antiviral activity against thymidine kinase-positive Human herpesvirus 3 infected in HEL cells assessed as inhibition of viral plaque formation; type: functional, organism-based; settings: Human alphaherpesvirus 3, HEL
[8] = Cytotoxicity against Homo sapiens (human) MT4 cells after 4 days by MTT assay; type: cell-based
[9] = test system: Human immunodeficiency virus 2; experiment: Antiviral activity against Human immunodeficiency virus type 2 (ISOLATE ROD) infected human MT4 cells assessed as inhibition of virus-induced cytopathic effect after 4 days by MTT assay; type: functional, organism-based; settings: Human immunodeficiency virus 2, ISOLATE ROD, MT4, 96 h
[10] = test system: Human immunodeficiency virus 1; experiment: Antiviral activity against Human immunodeficiency virus 1 IIIB infected human MT4 cells assessed as inhibition of virus-induced cytopathic effect after 4 days by MTT assay; type: functional, organism-based; settings: MT4, 96 h

| Compound | logP [1] | -logMIC (Aspergillus niger) | -logMIC (Candida albicans) | -logMIC (Escherichia coli) | -logMIC (Staphylococcus aureus) | -logMIC (Bacillus subtilis) | MCC [2] | EC50 (Human betaherpesvirus 5 [3]) | EC50 (Human betaherpesvirus 5 [4]) | CC50 [5] | EC50 (Human alphaherpesvirus 3 [6]) | EC50 (Human alphaherpesvirus 3 [7]) | CC50 at 96 h [8] | EC50 [9] | EC50 [10] |
| --- | --- | --- | --- | --- | --- | --- | --- | --- | --- | --- | --- | --- | --- | --- | --- |
| O=C(COc1cccc2ccccc12)N/N=C/c1ccccc1 | 4.02 | 0.78 | 0.78 | 0.78 | 0.78 | 0.78 | 100 µg/mL | > 20 µg/mL | > 20 µg/mL | 64.5 µg/mL (≈ 212 µM) | > 20 µg/mL | > 20 µg/mL | ≥ 96.6 µg/mL | > 96.6 µg/mL | > 96.6 µg/mL |
| O=C(COc1cccc2ccccc12)N/N=C/c1ccccc1Cl | 4.54 | 0.83 | 0.83 | 0.83 | 1.13 | 0.83 | 100 µg/mL | > 20 µg/mL | > 20 µg/mL | 62.7 µg/mL (≈ 185 µM) | > 20 µg/mL | > 20 µg/mL | 56.2 µg/mL (≈ 166 µM) | > 56.2 µg/mL | > 56.2 µg/mL |
| O=C(COc1cccc2ccccc12)N/N=C/c1cccc(Cl)c1 | 4.54 | 0.53 | 0.53 | 0.53 | 0.83 | 0.53 | 100 µg/mL | > 20 µg/mL | > 20 µg/mL | 58.6 µg/mL (≈ 173 µM) | > 100 µg/mL | > 100 µg/mL | 89.9 µg/mL (≈ 265 µM) | > 89.9 µg/mL | > 89.9 µg/mL |
| O=C(COc1cccc2ccccc12)N/N=C/c1ccc(Cl)cc1 | 4.54 | 0.53 | 0.53 | 0.53 | 1.43 | 0.53 | 100 µg/mL | > 20 µg/mL | > 20 µg/mL | 100 µg/mL (≈ 295 µM) | > 100 µg/mL | > 100 µg/mL | 87.6 µg/mL (≈ 259 µM) | > 87.6 µg/mL | > 87.6 µg/mL |
| O=C(COc1cccc2ccccc12)N/N=C/c1ccccc1Br | 4.81 | 0.88 | 0.88 | 0.88 | 1.19 | 0.88 | ≥ 20 µg/mL | > 20 µg/mL | > 4 µg/mL | 100 µg/mL (≈ 261 µM) | > 4 µg/mL | > 4 µg/mL | 11.4 µg/mL (≈ 29.8 µM) | > 11.4 µg/mL | > 11.4 µg/mL |
| O=C(COc1cccc2ccccc12)N/N=C/c1cccc(Br)c1 | 4.81 | 0.58 | 0.58 | 0.58 | 1.79 | 0.58 | 100 µg/mL | > 20 µg/mL | > 20 µg/mL | 48.6 µg/mL (≈ 127 µM) | > 20 µg/mL | > 20 µg/mL | 87.4 µg/mL (≈ 228 µM) | > 87.4 µg/mL | > 87.4 µg/mL |
| O=C(COc1cccc2ccccc12)N/N=C/c1ccc(Br)cc1 | 4.81 | 0.58 | 0.58 | 0.58 | 0.58 | 0.58 | > 100 µg/mL | > 100 µg/mL | > 100 µg/mL | 100 µg/mL (≈ 261 µM) | > 100 µg/mL | > 100 µg/mL | 106 µg/mL (≈ 278 µM) | > 106 µg/mL | > 106 µg/mL |
| O=C(COc1cccc2ccccc12)N/N=C/c1ccc(F)cc1 | 4.16 | 0.81 | 0.81 | 1.41 | 1.41 | 1.11 | 100 µg/mL | > 20 µg/mL | > 20 µg/mL | 71.6 µg/mL (≈ 222 µM) | > 20 µg/mL | > 20 µg/mL | 65 µg/mL (≈ 202 µM) | > 65 µg/mL | > 65 µg/mL |
| O=C(COc1cccc2ccccc12)N/N=C/c1ccccc1[N+](=O)[O-] | 3.97 | 1.45 | 1.45 | 1.45 | 1.45 | 1.14 | 20 µg/mL | > 4 µg/mL | > 4 µg/mL | 100 µg/mL (≈ 286 µM) | > 4 µg/mL | > 4 µg/mL | 12.2 µg/mL (≈ 34.9 µM) | > 12.2 µg/mL | > 12.2 µg/mL |
| O=C(COc1cccc2ccccc12)N/N=C/c1cccc([N+](=O)[O-])c1 | 3.97 | 0.84 | 1.45 | 1.45 | 1.14 | 1.14 | ≥ 20 µg/mL | > 20 µg/mL | > 4 µg/mL | 61.2 µg/mL (≈ 175 µM) | > 4 µg/mL | > 4 µg/mL | 12.1 µg/mL (≈ 34.6 µM) | > 12.1 µg/mL | > 12.1 µg/mL |
